Legend:
corn [1] = test: Test E preemergence; format: in vivo, Zea mays; settings: for Corn plant response rating: scale 0 to 100 (0 no effect, 100 complete control)
From the text: (§1) Seeds of plant species selected from corn (Zea mays), soybean (Glycine max), velvetleaf (Abutilon theophrasti), lambsquarters (Chenopodium album), wild poinsettia (Euphorbia heterophylla), palmer pigweed (Amaranthus palmeri), waterhemp (common waterhemp, Amaranthus rudis), surinam grass (Brachiaria decumbens), large (Lg) crabgrass (Digitaria sanguinalis), Brazilian crabgrass (Digitaria horizontalis), fall panicum (Panicum dichotomiflorum), giant foxtail (Setaria faberii), green foxtail (Setaria viridis), goosegrass (Eleusine indica), johnsongrass (Sorghum halepense), ragweed (common ragweed, Ambrosia elatior), barnyardgrass (Echinochloa crus-galli), sandbur (southern sandbur, Cenchrus echinatus), arrowleaf sida (Sida rhombifolia), Italian ryegrass (Lolium multiflorum), dayflower (Virginia (VA) dayflower, Commelina virginica), field bindweed (Convolvulus arvensis), morningglory (Ipomoea coccinea), nightshade (eastern black nightshade, Solanum ptycanthum), kochia (Kochia scoparia), yellow nutsedge (Cyperus esculentus), cocklebur (common cocklebur, Xanthium strumarium), smartweed (ladysthumb smartweed, and hairy beggarticks (Bidens pilosa), were planted into a silt loam soil and treated preemergence with test chemicals formulated in a non-phytotoxic solvent mixture which included a surfactant.
(§2) At the same time, plants from these crop and weed species and also horseweed (Canada horseweed, Conyza canadensis), waterhemp_RES1, (ALS & Triazine resistant common waterhemp, Amaranthus rudis), and waterhemp_RES2, (ALS & HPPD resistant common waterhemp, Amaranthus rudis) were planted in pots containing Redi-Earth® planting medium (Scotts Company, 14111 Scottslawn Road, Marysville, Ohio 43041) comprising spaghnum peat moss, vermiculite, wetting agent and starter nutrients were treated with postemergence applications of test chemicals formulated in the same manner. Plants ranged in height from 2 to 18 cm for postemergence treatments (1- to 4-leaf stage). Treated plants and controls were maintained in a greenhouse for 14 to 21 days, after which time all species were compared to controls and visually evaluated. Plant response ratings, summarized in Table E, are based on a scale of 0 to 100 where 0 is no effect and 100 is complete control. A dash (-) response means no test result.

surinam grass = test: Test E preemergence; format: in vivo, Brachiaria decumbens; settings: for Surinam Grass plant response rating: scale 0 to 100 (0 no effect, 100 complete control)
From the text: as §1, §2

fall panicum = test: Test E preemergence; format: in vivo, Panicum dichotomiflorum; settings: for Panicum, Fall plant response rating: scale 0 to 100 (0 no effect, 100 complete control)
Method in brief: (§3)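 Response was scored visually on a 0-100 scale (100 = complete control) versus controls after 14 to 21 days in the greenhouse. Test chemicals, formulated with surfactant in a non-phytotoxic solvent mixture, had been applied preemergence to seeds in silt loam soil or postemergence to 1- to 4-leaf plants in potting medium.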

green foxtail = test: Test E preemergence; format: in vivo, Setaria viridis; settings: for Foxtail, Green plant response rating: scale 0 to 100 (0 no effect, 100 complete control)
From the text: as §1, §2

barnyardgrass [2] = test: Test E preemergence; format: in vivo, Echinochloa crus-galli; settings: for Barnyardgrass plant response rating: scale 0 to 100 (0 no effect, 100 complete control)
From the text: as §1, §2

arrowleaf sida = test: Test E preemergence; format: in vivo, Sida rhombifolia; settings: for Arrowleaf Sida plant response rating: scale 0 to 100 (0 no effect, 100 complete control)
From the text: as §1, §2

field bindweed = test: Test E preemergence; format: in vivo, Convolvulus arvensis; settings: for Field Bindweed plant response rating: scale 0 to 100 (0 no effect, 100 complete control)
From the text: as §1, §2

kochia = test: Test E preemergence; format: in vivo, Kochia scoparia; settings: for Kochia plant response rating: scale 0 to 100 (0 no effect, 100 complete control)
From the text: as §1, §2

corn [3] = test: Test E postemergence; format: in vivo, Zea mays; settings: Postemergence, scale 0 to 100
Method in brief: as §3

wild poinsettia = test: Test E postemergence; format: in vivo, Euphorbia heterophylla; settings: Postemergence, scale 0 to 100
Method in brief: as §3

palmer pigweed = test: Test E postemergence; format: in vivo, Amaranthus palmeri; settings: Postemergence, scale 0 to 100
Method in brief: as §3

barnyardgrass [4] = test: Test E postemergence; format: in vivo, Echinochloa crus-galli; settings: Postemergence, scale 0 to 100
Method in brief: as §3

[5] = 8 g ai/ha, scale 0 to 100, 0 is no effect, 100 is complete control
[6] = 125 g ai/ha, scale 0 to 100, 0 no effect, 100 complete control
[7] = 8 g ai/ha, preemergence, scale 0 to 100, 0 is no effect, 100 is complete control
[8] = preemergence, 125 g ai/ha, scale 0 to 100, 0 no effect, 100 complete control
[9] = 250 g ai/ha, scale 0 to 100, 0 no effect, 100 complete control
[10] = Preemergence, 62 g ai/ha, scale 0 to 100, 0 no effect, 100 complete control
[11] = preemergence, 250 g ai/ha, scale 0 to 100, 0 no effect, 100 complete control

Structure (SMILES): NC(=S)c1cccc(Oc2ncc(Cl)cn2)c1-n1cc(Cl)cn1 [Compound 292]
- Plant response rating, Corn (corn [1]; [5]): 0
- Corn plant response rating (corn [1]; 16 g ai/ha): 0
- Corn plant response rating (corn [1]; 31 g ai/ha): 0
- Corn plant response rating (corn [1]; 62 g ai/ha): 0
- Plant response rating, Corn (corn [1]; [6]): 0
- Plant response rating, Surinam Grass (surinam grass; [5]): 0
- Surinam Grass plant response rating (surinam grass; 31 g ai/ha): 0
- Surinam Grass plant response rating (surinam grass; 62 g ai/ha): 10
- Plant response rating, Surinam Grass (surinam grass; [6]): 20
- Plant response rating, Panicum, Fall (fall panicum; [5]): 0
- Panicum, Fall plant response rating (fall panicum; 31 g ai/ha): 0
- Panicum, Fall plant response rating (fall panicum; 62 g ai/ha): 90
- Plant response rating, Panicum, Fall (fall panicum; [6]): 100
- Plant response rating, Foxtail, Green (green foxtail; [5]): 0
- Foxtail, Green plant response rating (green foxtail; 16 g ai/ha): 0
- Foxtail, Green plant response rating (green foxtail; 31 g ai/ha): 10
- Foxtail, Green plant response rating (green foxtail; 62 g ai/ha): 25
- Plant response rating, Foxtail, Green (green foxtail; [6]): 75
- Plant response rating, Barnyardgrass (barnyardgrass [2]; [7]): 0
- Barnyardgrass plant response rating (barnyardgrass [2]; 16 g ai/ha, preemergence): 0
- Barnyardgrass plant response rating (barnyardgrass [2]; 31 g ai/ha, preemergence): 0
- Barnyardgrass plant response rating (barnyardgrass [2]; 62 g ai/ha, preemergence): 0
- Plant response rating, Barnyardgrass (barnyardgrass [2]; [8]): 40
- Plant response rating, Arrowleaf Sida (arrowleaf sida; [7]): 0
- Arrowleaf Sida plant response rating (arrowleaf sida; 16 g ai/ha, preemergence): 0
- Arrowleaf Sida plant response rating (arrowleaf sida; 31 g ai/ha, preemergence): 5
- Arrowleaf Sida plant response rating (arrowleaf sida; 62 g ai/ha, preemergence): 5
- Plant response rating, Arrowleaf Sida (arrowleaf sida; [8]): 80
- Plant response rating, Field Bindweed (field bindweed; [5]): 0
- Field Bindweed plant response rating (field bindweed; 16 g ai/ha): 0
- Field Bindweed plant response rating (field bindweed; 31 g ai/ha): 5
- Field Bindweed plant response rating (field bindweed; 62 g ai/ha): 30
- Plant response rating, Field Bindweed (field bindweed; [6]): 65
- Plant response rating, Kochia (kochia; [5]): 0
- Kochia plant response rating (kochia; 31 g ai/ha): 0
- Kochia plant response rating (kochia; 62 g ai/ha): 70
- Plant response rating, Kochia (kochia; [6]): 98

Structure (SMILES): N#Cc1cccc(Oc2ncc(Cl)cn2)c1-n1cc(Cl)cn1 [Compound 72]
- Corn plant response rating (corn [1]; 16 g ai/ha): 0
- Corn plant response rating (corn [1]; 31 g ai/ha): 0
- Corn plant response rating (corn [1]; 62 g ai/ha): 0
- Plant response rating, Corn (corn [1]; [6]): 0
- Plant response rating, Corn (corn [1]; [9]): 0
- Surinam Grass plant response rating (surinam grass; 16 g ai/ha): 20
- Surinam Grass plant response rating (surinam grass; 31 g ai/ha): 20
- Surinam Grass plant response rating (surinam grass; 62 g ai/ha): 20
- Plant response rating, Surinam Grass (surinam grass; [6]): 10
- Plant response rating, Surinam Grass (surinam grass; [9]): 30
- Panicum, Fall plant response rating (fall panicum; 16 g ai/ha): 0
- Panicum, Fall plant response rating (fall panicum; 31 g ai/ha): 65
- Panicum, Fall plant response rating (fall panicum; 62 g ai/ha): 98
- Plant response rating, Panicum, Fall (fall panicum; [6]): 100
- Plant response rating, Panicum, Fall (fall panicum; [9]): 100
- Foxtail, Green plant response rating (green foxtail; 16 g ai/ha): 30
- Foxtail, Green plant response rating (green foxtail; 31 g ai/ha): 30
- Foxtail, Green plant response rating (green foxtail; 62 g ai/ha): 95
- Plant response rating, Foxtail, Green (green foxtail; [6]): 100
- Plant response rating, Foxtail, Green (green foxtail; [9]): 100
- Barnyardgrass plant response rating (barnyardgrass [2]; 16 g ai/ha, preemergence): 0
- Barnyardgrass plant response rating (barnyardgrass [2]; 31 g ai/ha, preemergence): 0
- Plant response rating, Barnyardgrass (barnyardgrass [2]; [10]): 15
- Plant response rating, Barnyardgrass (barnyardgrass [2]; [8]): 35
- Plant response rating, Barnyardgrass (barnyardgrass [2]; [11]): 90
- Arrowleaf Sida plant response rating (arrowleaf sida; 16 g ai/ha, preemergence): 20
- Arrowleaf Sida plant response rating (arrowleaf sida; 31 g ai/ha, preemergence): 40
- Plant response rating, Arrowleaf Sida (arrowleaf sida; [10]): 40
- Plant response rating, Arrowleaf Sida (arrowleaf sida; [8]): 100
- Plant response rating, Arrowleaf Sida (arrowleaf sida; [11]): 100
- Field Bindweed plant response rating (field bindweed; 16 g ai/ha): 0
- Field Bindweed plant response rating (field bindweed; 31 g ai/ha): 5
- Field Bindweed plant response rating (field bindweed; 62 g ai/ha): 10
- Plant response rating, Field Bindweed (field bindweed; [6]): 60
- Plant response rating, Field Bindweed (field bindweed; [9]): 95
- Kochia plant response rating (kochia; 16 g ai/ha): 10
- Kochia plant response rating (kochia; 31 g ai/ha): 75
- Kochia plant response rating (kochia; 62 g ai/ha): 98
- Plant response rating, Kochia (kochia; [6]): 100
- Plant response rating, Kochia (kochia; [9]): 100
- Plant response rating, Corn (corn [3]; 62 g ai/ha): 15
- Plant response rating, Corn (corn [3]; 125 g ai/ha): 10
- Plant response rating, Poinsettia, Wild (wild poinsettia; 62 g ai/ha): 55
- Plant response rating, Poinsettia, Wild (wild poinsettia; 125 g ai/ha): 60
- Plant response rating, Pigweed, Palmer (palmer pigweed; 62 g ai/ha): 75
- Plant response rating, Pigweed, Palmer (palmer pigweed; 125 g ai/ha): 90
- Plant response rating, Barnyardgrass (barnyardgrass [4]; 62 g ai/ha): 0
- Plant response rating, Barnyardgrass (barnyardgrass [4]; 125 g ai/ha): 10
